# Experimental data: ChEMBL document CHEMBL6103629 (J Med Chem, 2025); call rule not given here
# What was measured:
# [1] = Drug metabolism in Beagle dog plasma by LC-MS/MS analysis; format: ADME, cell-free, Canis lupus familiaris; settings: 5 h, 1 µM
# [2] = tested on: LoVo; assay: Induction of apoptosis in human LoVo cells assessed as early apoptotic cells at 3 uM incubated for 24 hrs by Annexin-V-FITC-PI staining based flow cytometric analysis (reference value: 13.7 %); format: functional
# [3] = Drug excretion in Sprague-Dawley rat feces at 5 mg/kg, IG administrated for 48 hrs by LC-MS/MS analysis; format: ADME, organism-based; settings: in vivo, po
# [4] = tested on: NCI-H1703; assay: Antitumor activity against human NCI-H1703 cells xenografted in female Balb/c nude mouse assessed as tumor growth inhibition at 40 mg/kg QD, po measured every 3 days for 28 days by vernier caliper based analysis relative to control; format: functional; settings: NCI-H1703, 672 h, time 28 day, read-out: TGI
# [5] = Induction of CYP2B6 mRNA expression in human primary hepatocyte isolated from YND donor at 0.1 to 10 uM incubated for 72 hrs by real-time PCR analysis; format: ADME, cell-based; settings: hepatocytes, dose 0.1-10 µM
# [6] = tested on: LoVo; assay: Induction of apoptosis in human LoVo cells assessed as viable cells at 1 uM incubated for 24 hrs by Annexin-V-FITC-PI staining based flow cytometric analysis (reference value: 72.1 %); format: functional; settings: read-out: Activity
# [7] = biological target: Cytochrome P450 3A4 (Homo sapiens, UniProt P08684); assay: Inhibition of CYP3A4 in human liver microsomes using testosterone as substrate and in presence of NADPH incubated for 60 mins by LC-MS/MS analysis; format: ADME, Microsome
# [8] = tested on: Hepatocyte; assay: Cytotoxicity against human primary hepatocytes isolated from DZM donor at 0.1 to 10 uM incubated for 72 hrs by cytotox-glo assay; format: toxicity, cell-based; settings: dose 0.1-10 µM
# [9] = Toxicity in male Balb/c nude mouse xenografted with human 22Rv1 cells assessed as body weight at 40 mg/kg QD, po measured every 3 days for 25 days at 10 to 60 mg/kg QD, po measured every 3 days for 18 days; format: organism-based; settings: in vivo, 432 h, time 18 day
# [10] = Drug distribution in Sprague-Dawley rat small intestine at 5 mg/kg, IG administrated as single dose measured after 0.5 hrs by LC-MS/MS analysis; format: ADME, organism-based; settings: in vivo, po
# [11] = biological target: CYP1A2 (Homo sapiens, UniProt P05177); assay: Inhibition of recombinant human CYP1A2 assessed as residual activity at 1 uM in the presence of NADPH incubated for 60 mins by LC-MS/MS analysis relative to control; format: ADME; settings: read-out: Activity
# [12] = Induction of CYP3A4 mRNA expression in human primary hepatocyte isolated from RAS donor at 0.1 to 10 uM incubated for 72 hrs by real-time PCR analysis; format: ADME, cell-based; settings: hepatocytes, dose 0.1-10 µM
# [13] = tested on: LoVo; assay: Induction of apoptosis in human LoVo cells assessed as necrotic cells at 1 uM incubated for 24 hrs by Annexin-V-FITC-PI staining based flow cytometric analysis (reference value: 0.97 %); format: functional
# [14] = Toxicity in female Balb/c nude mouse xenografted with human LoVo cells assessed as body weight at 40 mg/kg QD, po measured every 3 days for 25 days; format: organism-based; settings: in vivo, 600 h, time 25 day
# [15] = Induction of CYP3A4 mRNA expression in human primary hepatocyte isolated from YND donor at 0.1 to 10 uM incubated for 72 hrs by real-time PCR analysis; format: ADME, cell-based; settings: hepatocytes, dose 0.1-10 µM
# [16] = tested on: LoVo; assay: Antitumor activity against human LoVo cells xenografted in female Balb/c nude mouse assessed as tumor growth inhibition at 20 mg/kg QD, po measured every 3 days for 25 days relative to control; format: functional; settings: 600 h, time 25 day, read-out: TGI
# [17] = tested on: LoVo; assay: Induction of apoptosis in human LoVo cells assessed as viable cells at 3 uM incubated for 24 hrs by Annexin-V-FITC-PI staining based flow cytometric analysis (reference value: 72.1 %); format: functional; settings: read-out: Activity
# [18] = Drug distribution in Sprague-Dawley rat liver at 5 mg/kg, IG administrated as single dose measured after 0.5 hrs by LC-MS/MS analysis; format: ADME, organism-based; settings: in vivo, po
# [19] = tested on: Hepatocyte; assay: Cytotoxicity against human primary hepatocytes isolated from YND donor at 0.1 to 10 uM incubated for 72 hrs by cytotox-glo assay; format: toxicity, cell-based; settings: dose 0.1-10 µM
# [20] = Drug metabolism in Sprague-Dawley rat plasma by LC-MS/MS analysis; format: ADME, cell-free; settings: 5 h, 1 µM
# [21] = Drug metabolism in Sprague-Dawley rat liver cells at 2 uM incubated upto 120 mins by LC-MS/MS analysis; format: ADME, cell-based; settings: 2 h
# [22] = Plasma protein binding in Sprague-Dawley rat at 1 uM incubated for 5 hrs in HTD dialysis in the presence of verapamil by LC-MS/MS analysis relative to control; format: ADME, cell-free; settings: read-out: PPB (converted)
# [23] = Toxicity in Beagle dogs assessed as effect on cardiovascular system at 5 to 20 mg/kg, po administrated as single dose upto 24 hrs; format: organism-based, Canis lupus familiaris; settings: dog, in vivo, dose 5-20 mg/kg
# [24] = Drug accumulation in female Beagle dogs at 5 mg/kg, IG measured for 7 days by LC-MS/MS analysis; format: ADME, organism-based, Canis lupus familiaris; settings: dog, in vivo, po, 168 h, time 7 day
# [25] = Induction of CYP2B6 mRNA expression in human primary hepatocyte isolated from DZM donor at 0.1 to 10 uM incubated for 72 hrs by real-time PCR analysis; format: ADME, cell-based; settings: hepatocytes, dose 0.1-10 µM
# [26] = biological target: Cytochrome P450 2C8 (Homo sapiens, UniProt P10632); assay: Inhibition of CYP2C8 in human liver microsomes in the presence of NADPH incubated for 60 mins by LC-MS/MS analysis; format: ADME, Microsome
# [27] = Stability in Beagle dog plasma assessed as half life by LC-MS/MS analysis; format: ADME, cell-free, Canis lupus familiaris
# [28] = Drug accumulation in male Beagle dogs at 5 mg/kg, IG measured for 7 days by LC-MS/MS analysis; format: ADME, organism-based, Canis lupus familiaris; settings: dog, in vivo, po, 168 h, time 7 day
# [29] = biological target: Phosphatidylinositol 4,5-bisphosphate 3-kinase catalytic subunit alpha isoform (Homo sapiens, UniProt P42336); assay: Inhibition of PI3Kalpha (unknown origin) preincubated for 15 mins and measured after 60 mins by Z-LYTE screening
# [30] = Stability in CD-1 mouse plasma assessed as half life by LC-MS/MS analysis; format: ADME, cell-free
# [31] = tested on: NCI-H1703; assay: Synergistic antitumor activity against human NCI-H1703 cells xenografted in female Balb/c nude mouse assessed as tumor growth inhibition co administered with Gemcitabine at 40 mg/kg QD, po administered as 3 days on and 4 days off schedule for 4 weeks relative to control; format: functional; settings: NCI-H1703, 672 h, time 28 day, read-out: TGI
# [32] = tested on: Hepatocyte; assay: Cytotoxicity against human primary hepatocytes isolated from RAS donor at 0.1 to 10 uM incubated for 72 hrs by cytotox-glo assay; format: toxicity, cell-based; settings: dose 0.1-10 µM
# [33] = Induction of CYP3A4 mRNA expression in human primary hepatocyte isolated from DZM donor at 0.1 to 10 uM incubated for 72 hrs by real-time PCR analysis; format: ADME, cell-based; settings: hepatocytes, dose 0.1-10 µM
# [34] = tested on: LoVo; assay: Antitumor activity against human LoVo cells xenografted in female Balb/c nude mouse assessed as tumor growth inhibition at 60 mg/kg QD, po measured every 3 days for 25 days relative to control; format: functional; settings: 600 h, time 25 day, read-out: TGI
# [35] = tested on: JeKo-1; assay: Antitumor activity against human JeKo-1 cells xenografted in female CB17 SCID mouse assessed as tumor growth inhibition at 40 mg/kg BID, po administered as 3 days on and 4 days off schedule for 24 days relative to control; format: functional; settings: JeKo-1, 576 h, time 24 day, read-out: TGI
# Chain of Cytochrome P450 3A4 (P08684 whole entry): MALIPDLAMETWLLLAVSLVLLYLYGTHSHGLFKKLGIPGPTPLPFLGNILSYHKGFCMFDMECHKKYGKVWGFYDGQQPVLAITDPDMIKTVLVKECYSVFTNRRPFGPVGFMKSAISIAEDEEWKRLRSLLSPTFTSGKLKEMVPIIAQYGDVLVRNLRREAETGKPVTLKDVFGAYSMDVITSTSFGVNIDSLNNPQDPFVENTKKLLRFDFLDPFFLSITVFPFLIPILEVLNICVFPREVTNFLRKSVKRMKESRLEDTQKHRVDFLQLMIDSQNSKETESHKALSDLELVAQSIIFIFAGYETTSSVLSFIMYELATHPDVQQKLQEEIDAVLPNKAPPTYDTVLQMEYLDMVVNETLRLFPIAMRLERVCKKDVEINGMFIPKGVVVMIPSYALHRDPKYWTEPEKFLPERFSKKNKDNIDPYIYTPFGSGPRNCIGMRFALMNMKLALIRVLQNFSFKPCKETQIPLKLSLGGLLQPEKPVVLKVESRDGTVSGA
# Chain of CYP1A2 (P05177 whole entry): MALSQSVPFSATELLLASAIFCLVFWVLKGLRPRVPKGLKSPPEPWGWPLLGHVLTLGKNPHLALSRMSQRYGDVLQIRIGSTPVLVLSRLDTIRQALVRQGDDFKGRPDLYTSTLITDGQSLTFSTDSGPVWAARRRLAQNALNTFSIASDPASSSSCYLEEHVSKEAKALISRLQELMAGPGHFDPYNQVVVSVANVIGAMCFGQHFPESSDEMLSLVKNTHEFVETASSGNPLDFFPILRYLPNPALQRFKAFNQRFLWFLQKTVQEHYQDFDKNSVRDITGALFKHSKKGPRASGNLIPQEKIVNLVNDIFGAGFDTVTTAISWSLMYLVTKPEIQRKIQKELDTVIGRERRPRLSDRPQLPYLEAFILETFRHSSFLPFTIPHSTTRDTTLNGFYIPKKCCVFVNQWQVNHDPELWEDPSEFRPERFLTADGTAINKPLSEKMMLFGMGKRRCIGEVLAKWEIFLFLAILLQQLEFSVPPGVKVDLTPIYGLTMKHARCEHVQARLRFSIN
# Chain of Phosphatidylinositol 4,5-bisphosphate 3-kinase catalytic subunit alpha isoform (P42336 whole entry, canonical isoform): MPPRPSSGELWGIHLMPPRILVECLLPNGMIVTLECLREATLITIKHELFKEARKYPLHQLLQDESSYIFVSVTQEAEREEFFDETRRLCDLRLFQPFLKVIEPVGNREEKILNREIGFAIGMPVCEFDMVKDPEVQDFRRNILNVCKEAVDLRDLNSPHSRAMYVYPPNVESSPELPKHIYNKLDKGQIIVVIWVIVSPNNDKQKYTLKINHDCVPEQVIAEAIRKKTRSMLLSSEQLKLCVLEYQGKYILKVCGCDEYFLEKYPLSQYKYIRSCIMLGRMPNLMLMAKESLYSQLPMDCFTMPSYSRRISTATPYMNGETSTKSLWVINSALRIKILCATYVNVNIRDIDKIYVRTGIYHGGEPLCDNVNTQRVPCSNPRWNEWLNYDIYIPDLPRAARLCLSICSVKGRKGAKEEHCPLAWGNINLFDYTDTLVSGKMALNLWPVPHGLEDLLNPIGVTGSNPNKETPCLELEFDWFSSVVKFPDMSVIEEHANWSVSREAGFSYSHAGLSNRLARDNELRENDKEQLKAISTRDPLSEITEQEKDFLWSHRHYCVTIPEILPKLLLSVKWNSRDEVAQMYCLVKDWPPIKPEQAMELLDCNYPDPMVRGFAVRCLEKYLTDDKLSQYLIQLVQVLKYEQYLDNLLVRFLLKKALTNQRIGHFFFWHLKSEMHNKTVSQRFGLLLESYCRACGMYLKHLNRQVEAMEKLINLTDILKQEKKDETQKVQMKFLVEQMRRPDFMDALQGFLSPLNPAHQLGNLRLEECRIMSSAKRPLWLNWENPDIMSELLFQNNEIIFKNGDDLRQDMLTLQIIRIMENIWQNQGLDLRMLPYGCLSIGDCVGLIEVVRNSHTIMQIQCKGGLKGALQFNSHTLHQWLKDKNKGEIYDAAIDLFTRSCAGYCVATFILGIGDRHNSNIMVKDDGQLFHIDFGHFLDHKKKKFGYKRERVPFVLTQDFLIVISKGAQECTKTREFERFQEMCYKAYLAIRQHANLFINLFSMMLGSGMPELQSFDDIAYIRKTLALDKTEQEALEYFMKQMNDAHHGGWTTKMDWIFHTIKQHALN
# Chain of Cytochrome P450 2C8 (P10632 whole entry): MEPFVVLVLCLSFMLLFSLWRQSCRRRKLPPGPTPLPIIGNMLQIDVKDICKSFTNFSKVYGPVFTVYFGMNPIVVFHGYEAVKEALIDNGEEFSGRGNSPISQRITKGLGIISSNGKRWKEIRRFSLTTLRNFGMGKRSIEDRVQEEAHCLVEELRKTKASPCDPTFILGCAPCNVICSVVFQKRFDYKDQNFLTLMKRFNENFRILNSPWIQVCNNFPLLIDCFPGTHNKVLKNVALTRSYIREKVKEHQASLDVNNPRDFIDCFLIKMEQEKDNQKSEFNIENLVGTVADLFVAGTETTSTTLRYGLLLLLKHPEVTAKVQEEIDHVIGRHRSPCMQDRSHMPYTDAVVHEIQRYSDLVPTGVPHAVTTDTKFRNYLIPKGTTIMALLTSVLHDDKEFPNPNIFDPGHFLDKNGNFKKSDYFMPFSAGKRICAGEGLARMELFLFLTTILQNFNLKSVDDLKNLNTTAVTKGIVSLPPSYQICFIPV
structure (smiles),measurement,setting,value
Cc1nn(-c2cccnc2)c(C)c1-c1cc(N2CC3CCC(C2)O3)nc2c(-c3ccn[nH]3)cnn12.O=C(O)/C=C/C(=O)O,Drug metabolism,[1],metabolite_notdetected
same,Activity,[2],23.8%
same,Drug excretion,[3],Active
same,inhibition in vivo at 40 mg/kg,[4],73.3%
same,Activity,[5],Not_active
same,viability at 1 µM,[6],65%
same,IC50,[7],41.5 µM
same,Activity,[8],Non-toxic
same,Activity,[9],Non-toxic
same,Drug uptake,[10],Active
same,"activity at 1 h, 1 µM",[11],105%
same,Activity,[12],Active
same,Activity,[13],0.8%
same,Activity,[14],Non-toxic
same,Activity,[15],Active
same,inhibition in vivo at 20 mg/kg,[16],26.9%
same,viability at 3 µM,[17],53.7%
same,Drug uptake,[18],Active
same,Activity,[19],Non-toxic
same,Drug metabolism,[20],metabolite_notdetected
same,Drug metabolism,[21],metabolite_detected
same,"fraction unbound at 5 h, 1 µM",[22],0.136
same,Activity,[23],Non-toxic
same,Drug uptake,[24],Active
same,Activity,[25],Active
same,IC50,[26],37.1 µM
same,half-life,[27],> 2 h
same,Drug uptake,[28],Active
same,IC50,[29],3.58 µM
same,half-life,[30],> 2 h
same,inhibition in vivo at 40 mg/kg,[31],92.9%
same,Activity,[32],Non-toxic
same,Activity,[33],Active
same,inhibition in vivo at 60 mg/kg,[34],67.4%
same,inhibition in vivo at 40 mg/kg,[35],90.6%
